Like-named read-outs stand apart in the source and are kept apart here.
Legend:
Assay type in all cases: in vivo
PANDI [1] = assay: Herbicidal activity, upland test, post-emergence
From the text: (§1) The sterilized sandy loam soil is filled in test pot having a surface area of 348 cm^2 for upland test conditions or 115 cm^2 for paddy test species were planted in furrows.
(§2) The pots for the post-emergent tests were placed in a greenhouse and watered for 9~14 days, then the foliage of test plants was sprayed with a solution of the test compound in a mixture of acetone and water containing a small amount of Tween 20.
(§3) After spraying the plants were kept for one day, then watered regularly for 14 to 21 days, and herbicidal activity data were recorded.
(§4) The herbicidal activity data were taken visually by percent control, wherein 0 signifies no herbicidal effect and 100 signifies complete kill.

GOSHI [2] = assay: Herbicidal activity, upland test, post-emergence
From the text: as §1, §2, §3, §4

ORYSA [3] = assay: Herbicidal activity, upland test, post-emergence
From the text: as §1, §2, §3, §4

BROJA [4] = assay: Herbicidal activity, upland test, post-emergence
From the text: as §1, §2, §3, §4

SOLNI [5] = assay: Herbicidal activity, upland test, post-emergence
From the text: as §1, §2, §3, §4

ABUTH [6] = assay: Herbicidal activity, upland test, post-emergence
From the text: as §1, §2, §3, §4

SORBI = assay: Herbicidal activity, upland test, pre-emergence
Experimental: as §1
(§5) For the pre-emergent tests, were sprayed on the soil one day after planting test compound in a mixture of acetone and 7 ml of the water containing up to 0.1% Tween 20.
(§6) The concentration of the test compound in solution was varied to give a range of application rates, generally 4.0 kg/ha and submultiples thereof. The pots were placed in a greenhouse and watered regularly at the soil surface for 21 days and herbicidal effects were visually rated by a percent control.
as §4

PANDI [7] = assay: Herbicidal activity, upland test, pre-emergence
Experimental: as §1, §5, §6, §4

TRZAW = assay: Herbicidal activity, upland test, pre-emergence
Experimental: as §1, §5, §6, §4

ECHOR [8] = assay: Herbicidal activity, upland test, pre-emergence
Experimental: as §1, §5, §6, §4

AESIN = assay: Herbicidal activity, upland test, pre-emergence
Experimental: as §1, §5, §6, §4

GOSHI [9] = assay: Herbicidal activity, upland test, pre-emergence
Experimental: as §1, §5, §6, §4

ORYSA [10] = assay: Herbicidal activity, upland test, pre-emergence
Experimental: as §1, §5, §6, §4

BROJA [11] = assay: Herbicidal activity, upland test, pre-emergence
Experimental: as §1, §5, §6, §4

ZEAMX = assay: Herbicidal activity, upland test, pre-emergence
Experimental: as §1, §5, §6, §4

SOLNI [12] = assay: Herbicidal activity, upland test, pre-emergence
Experimental: as §1, §5, §6, §4

GLXMX = assay: Herbicidal activity, upland test, pre-emergence
Experimental: as §1, §5, §6, §4

ABUTH [13] = assay: Herbicidal activity, upland test, pre-emergence
Experimental: as §1, §5, §6, §4

DIGSA = assay: Herbicidal activity, upland test, pre-emergence
Experimental: as §1, §5, §6, §4

MOOVA = assay: Herbicidal activity for paddy test
Procedure, shortened: (§7)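 Visual percent-control rating: 0 = no herbicidal effect, 100 = complete kill. Plants grown in furrows, sterilized sandy loam, 115 cm^2 pots (paddy conditions).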

ECHOR [14] = assay: Herbicidal activity for paddy test
Procedure, shortened: as §7

ORYSA [15] = assay: Herbicidal activity for paddy test; settings: for plant injury at 2 g/ha: 0.002 kg/ha; for plant injury at 8 g/ha: 0.008 kg/ha; for plant injury at 31 g/ha: 0.031 kg/ha; for plant injury at 125 g/ha: 0.125 kg/ha; for plant injury at 500 g/ha: 0.500 kg/ha
Procedure, shortened: as §7

SAGPY = assay: Herbicidal activity for paddy test
Procedure, shortened: as §7

SCPJU = assay: Herbicidal activity for paddy test
Procedure, shortened: as §7

[16] = 3 Leaf, read-out: Herbicidal activity, ORYSA (3 Leaf)
[17] = seed, read-out: Herbicidal activity, ORYSA (seed)

CCCC(=NOC)C1=C(O)CC(c2c(C)c(C)c3c(c2C)CC(C)(C)C3)CC1=O (stereo not shown) [Compound 6]
Herbicidal activity, PANDI (PANDI [1]; 0.016 kg/ha): 40 % inhibition | Herbicidal activity, PANDI (PANDI [1]; 0.063 kg/ha): 100 % inhibition | Herbicidal activity, PANDI (PANDI [1]; 1.000 kg/ha): 100 % inhibition | Herbicidal activity, PANDI (PANDI [1]; 1.250 kg/ha): 100 % inhibition | Herbicidal activity, GOSHI (GOSHI [2]; 0.016 kg/ha): 0 % inhibition | Herbicidal activity, GOSHI (GOSHI [2]; 0.063 kg/ha): 30 % inhibition | Herbicidal activity, GOSHI (GOSHI [2]; 1.000 kg/ha): 50 % inhibition | Herbicidal activity, GOSHI (GOSHI [2]; 1.250 kg/ha): 40 % inhibition | Herbicidal activity, ORYSA (ORYSA [3]; 0.016 kg/ha): 0 % inhibition | Herbicidal activity, ORYSA (ORYSA [3]; 0.063 kg/ha): 30 % inhibition | Herbicidal activity, ORYSA (ORYSA [3]; 1.000 kg/ha): 100 % inhibition | Herbicidal activity, ORYSA (ORYSA [3]; 1.250 kg/ha): 70 % inhibition | Herbicidal activity, BROJA (BROJA [4]; 0.016 kg/ha): 0 % inhibition | Herbicidal activity, BROJA (BROJA [4]; 0.063 kg/ha): 30 % inhibition | Herbicidal activity, BROJA (BROJA [4]; 1.000 kg/ha): 100 % inhibition | Herbicidal activity, BROJA (BROJA [4]; 1.250 kg/ha): 70 % inhibition | Herbicidal activity, SOLNI (SOLNI [5]; 0.016 kg/ha): 0 % inhibition | Herbicidal activity, SOLNI (SOLNI [5]; 0.063 kg/ha): 0 % inhibition | Herbicidal activity, SOLNI (SOLNI [5]; 1.000 kg/ha): 30 % inhibition | Herbicidal activity, SOLNI (SOLNI [5]; 1.250 kg/ha): 0 % inhibition | Herbicidal activity, ABUTH (ABUTH [6]; 0.016 kg/ha): 0 % inhibition | Herbicidal activity, ABUTH (ABUTH [6]; 0.063 kg/ha): 0 % inhibition | Herbicidal activity, ABUTH (ABUTH [6]; 1.000 kg/ha): 30 % inhibition | Herbicidal activity, ABUTH (ABUTH [6]; 1.250 kg/ha): 0 % inhibition | Herbicidal activity, SORBI (SORBI; 0.016 kg/ha): 0 % inhibition | Herbicidal activity, SORBI (SORBI; 0.063 kg/ha): 0 % inhibition | Herbicidal activity, SORBI (SORBI; 1.000 kg/ha): 30 % inhibition | Herbicidal activity, SORBI (SORBI; 1.250 kg/ha): 0 % inhibition | Herbicidal activity, PANDI (PANDI [7]; 0.016 kg/ha): 0 % inhibition | Herbicidal activity, PANDI (PANDI [7]; 0.063 kg/ha): 80 % inhibition | Herbicidal activity, PANDI (PANDI [7]; 1.000 kg/ha): 100 % inhibition | Herbicidal activity, PANDI (PANDI [7]; 1.250 kg/ha): 100 % inhibition | Herbicidal activity, TRZAW (TRZAW; 0.016 kg/ha): 0 % inhibition | Herbicidal activity, TRZAW (TRZAW; 0.063 kg/ha): 0 % inhibition | Herbicidal activity, TRZAW (TRZAW; 1.000 kg/ha): 60 % inhibition | Herbicidal activity, TRZAW (TRZAW; 1.250 kg/ha): 20 % inhibition | Herbicidal activity, ECHOR (ECHOR [8]; 0.016 kg/ha): 0 % inhibition | Herbicidal activity, ECHOR (ECHOR [8]; 0.063 kg/ha): 0 % inhibition | Herbicidal activity, ECHOR (ECHOR [8]; 1.000 kg/ha): 100 % inhibition | Herbicidal activity, ECHOR (ECHOR [8]; 1.250 kg/ha): 50 % inhibition | Herbicidal activity, AESIN (AESIN; 0.016 kg/ha): 0 % inhibition | Herbicidal activity, AESIN (AESIN; 0.063 kg/ha): 0 % inhibition | Herbicidal activity, AESIN (AESIN; 1.000 kg/ha): 0 % inhibition | Herbicidal activity, AESIN (AESIN; 1.250 kg/ha): 0 % inhibition | Herbicidal activity, GOSHI (GOSHI [9]; 0.016 kg/ha): 0 % inhibition | Herbicidal activity, GOSHI (GOSHI [9]; 0.063 kg/ha): 0 % inhibition | Herbicidal activity, GOSHI (GOSHI [9]; 1.000 kg/ha): 0 % inhibition | Herbicidal activity, GOSHI (GOSHI [9]; 1.250 kg/ha): 0 % inhibition | Herbicidal activity, ORYSA (ORYSA [10]; 0.016 kg/ha): 0 % inhibition | Herbicidal activity, ORYSA (ORYSA [10]; 0.063 kg/ha): 30 % inhibition | Herbicidal activity, ORYSA (ORYSA [10]; 1.000 kg/ha): 80 % inhibition | Herbicidal activity, ORYSA (ORYSA [10]; 1.250 kg/ha): 30 % inhibition | Herbicidal activity, BROJA (BROJA [11]; 0.016 kg/ha): 0 % inhibition | Herbicidal activity, BROJA (BROJA [11]; 0.063 kg/ha): 0 % inhibition | Herbicidal activity, BROJA (BROJA [11]; 1.000 kg/ha): 80 % inhibition | Herbicidal activity, BROJA (BROJA [11]; 1.250 kg/ha): 40 % inhibition | Herbicidal activity, ZEAMX (ZEAMX; 0.016 kg/ha): 0 % inhibition | Herbicidal activity, ZEAMX (ZEAMX; 0.063 kg/ha): 0 % inhibition | Herbicidal activity, ZEAMX (ZEAMX; 1.000 kg/ha): 40 % inhibition | Herbicidal activity, ZEAMX (ZEAMX; 1.250 kg/ha): 0 % inhibition | Herbicidal activity, SOLNI (SOLNI [12]; 0.016 kg/ha): 0 % inhibition | Herbicidal activity, SOLNI (SOLNI [12]; 0.063 kg/ha): 0 % inhibition | Herbicidal activity, SOLNI (SOLNI [12]; 1.000 kg/ha): 0 % inhibition | Herbicidal activity, SOLNI (SOLNI [12]; 1.250 kg/ha): 0 % inhibition | Herbicidal activity, GLXMX (GLXMX; 0.016 kg/ha): 0 % inhibition | Herbicidal activity, GLXMX (GLXMX; 0.063 kg/ha): 0 % inhibition | Herbicidal activity, GLXMX (GLXMX; 1.000 kg/ha): 0 % inhibition | Herbicidal activity, GLXMX (GLXMX; 1.250 kg/ha): 0 % inhibition | Herbicidal activity, ABUTH (ABUTH [13]; 0.016 kg/ha): 0 % inhibition | Herbicidal activity, ABUTH (ABUTH [13]; 0.063 kg/ha): 0 % inhibition | Herbicidal activity, ABUTH (ABUTH [13]; 1.000 kg/ha): 0 % inhibition | Herbicidal activity, ABUTH (ABUTH [13]; 1.250 kg/ha): 0 % inhibition | Herbicidal activity, DIGSA (DIGSA; 0.016 kg/ha): 0 % inhibition | Herbicidal activity, DIGSA (DIGSA; 0.063 kg/ha): 0 % inhibition | Herbicidal activity, DIGSA (DIGSA; 1.000 kg/ha): 100 % inhibition | Herbicidal activity, DIGSA (DIGSA; 1.250 kg/ha): 60 % inhibition | pest or weed control at 2 g/ha (MOOVA; 0.002 kg/ha): 0% | pest or weed control at 8 g/ha (MOOVA; 0.008 kg/ha): 0% | pest or weed control at 31 g/ha (MOOVA; 0.031 kg/ha): 0% | pest or weed control at 125 g/ha (MOOVA; 0.125 kg/ha): 0% | pest or weed control at 500 g/ha (MOOVA; 0.500 kg/ha): 0% | pest or weed control at 2 g/ha (ECHOR [14]; 0.002 kg/ha): 0% | pest or weed control at 8 g/ha (ECHOR [14]; 0.008 kg/ha): 60% | pest or weed control at 31 g/ha (ECHOR [14]; 0.031 kg/ha): 100% | pest or weed control at 125 g/ha (ECHOR [14]; 0.125 kg/ha): 100% | pest or weed control at 500 g/ha (ECHOR [14]; 0.500 kg/ha): 100% | plant injury at 2 g/ha (ORYSA [15]; [16]): 0% | plant injury at 8 g/ha (ORYSA [15]; [16]): 0% | plant injury at 31 g/ha (ORYSA [15]; [16]): 0% | plant injury at 125 g/ha (ORYSA [15]; [16]): 20% | plant injury at 500 g/ha (ORYSA [15]; [16]): 65% | plant injury at 2 g/ha (ORYSA [15]; [17]): 0% | plant injury at 8 g/ha (ORYSA [15]; [17]): 0% | plant injury at 31 g/ha (ORYSA [15]; [17]): 100% | plant injury at 125 g/ha (ORYSA [15]; [17]): 100% | plant injury at 500 g/ha (ORYSA [15]; [17]): 100% | pest or weed control at 2 g/ha (SAGPY; 0.002 kg/ha): 0% | pest or weed control at 8 g/ha (SAGPY; 0.008 kg/ha): 0% | pest or weed control at 31 g/ha (SAGPY; 0.031 kg/ha): 0% | pest or weed control at 125 g/ha (SAGPY; 0.125 kg/ha): 0% | pest or weed control at 500 g/ha (SAGPY; 0.500 kg/ha): 40% | pest or weed control at 2 g/ha (SCPJU; 0.002 kg/ha): 0% | pest or weed control at 8 g/ha (SCPJU; 0.008 kg/ha): 0% | pest or weed control at 31 g/ha (SCPJU; 0.031 kg/ha): 0% | pest or weed control at 125 g/ha (SCPJU; 0.125 kg/ha): 0% | pest or weed control at 500 g/ha (SCPJU; 0.500 kg/ha): 0%

From US6096930A, “Herbicidal cyclohexane-1,3-dione derivatives and their preparation process” (Korea Research Institute of Chemical Technology, priority 1994, dated 2000)
